According to the supplement of paper PMC10307832:

Experiments:
Test in all cases: relative viability (nuclei count vs DMSO), 5 days (fraction); higher = more cells survive
[1] = compound: C1=CC(=CC=C1C2=CC(=C(S2)NC(=O)N)C(=O)N)F [TPCA-1] + C[C@@H](Oc1cc(-c2cnn(C3CCNCC3)c2)cnc1N)c1c(Cl)ccc(F)c1Cl [Crizotinib] (partner 1 µM)
Method in brief: (§1)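 Lung cancer cell lines were pin-tool dosed in 1536-well plates on the day after seeding, with either a lone drug or a fixed anchor-drug dose plus five library-drug doses (not always all listed) in √10 steps. Nuclei were counted on 4× images after 5 days. Relative viability is the ratio of treated-well to vehicle-well nuclei counts, with each value a median of duplicate plates.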

[2] = compound: C[C@]12O[C@H](C[C@]1(O)CO)n1c3ccccc3c3c4c(c5c6ccccc6n2c5c31)CNC4=O [Lestaurtinib] + CC(=O)Nc1cccc(-n2c(=O)n(C3CC3)c(=O)c3c(Nc4ccc(I)cc4F)n(C)c(=O)c(C)c32)c1 [Trametinib] (partner 0.02 µM)
Method in brief: as §1

[3] = compound: C1=CC(=CC=C1C2=CC(=C(S2)NC(=O)N)C(=O)N)F [TPCA-1] + COc1cc2c(Oc3ccc(NC(=O)C4(C(=O)Nc5ccc(F)cc5)CC4)cc3F)ccnc2cc1OCCCN1CCOCC1 [Foretinib] (partner 0.25 µM)
Method in brief: as §1

[4] = compound: C1=CC(=CC=C1C2=CC(=C(S2)NC(=O)N)C(=O)N)F [TPCA-1] + O=C(c1cc(Cc2n[nH]c(=O)c3ccccc23)ccc1F)N1CCN(C(=O)C2CC2)CC1 [Olaparib] (partner 8 µM)
Method in brief: as §1

UMC-11
relative viability ([1]; first compound 0.04 µM): 0.579
relative viability ([1]; first compound 0.1265 µM): 0.586
relative viability ([1]; first compound 0.4 µM): 0.578
relative viability ([1]; first compound 1.265 µM): 0.573
relative viability ([1]; first compound 4 µM): 0.274
relative viability ([2]; first compound 0.005 µM): 0.746
relative viability ([2]; first compound 0.01581 µM): 0.6
relative viability ([2]; first compound 0.05 µM): 0.601
relative viability ([2]; first compound 0.1581 µM): 0.311
relative viability ([2]; first compound 0.5 µM): 0.155
relative viability ([3]; first compound 0.04 µM): 1.16
relative viability ([3]; first compound 0.1265 µM): 1.02
relative viability ([3]; first compound 0.4 µM): 1.04
relative viability ([3]; first compound 1.265 µM): 0.925
relative viability ([3]; first compound 4 µM): 0.387
relative viability ([4]; first compound 0.04 µM): 0.365
relative viability ([4]; first compound 0.1265 µM): 0.455
relative viability ([4]; first compound 0.4 µM): 0.405
relative viability ([4]; first compound 1.265 µM): 0.381
relative viability ([4]; first compound 4 µM): 0.42
